This is an account of results in patent US8759309B2, “Polynucleotides that stimulate neutrophils” (Immunom Technologies, Inc., priority 2010, dated 2014).

“And” between values parts separate entries of the source, which are not always exact repeats. Identical values can stand only once. “Also recorded” adds a separate entry of the source.

The subject of the data set is neutrophils isolated from the kidneys of fathead minnows. As to the kind of experiment: Neutrophil oxidative (respiratory) burst, oxidation of DHR123 to rhodamine by flow cytometry. Type of data set: cell-based, Pimephales promelas. As to conditions: for % of PMA (oxidative burst): PMA at 1 μg/ml = 100%, * P<0.05; for stimulation of neutrophils (qualitative): exposure of neutrophils to individual oligos and their dimer. The text has this: Polynucleotides that stimulate neutrophils may be identified by exposing neutrophils isolated from the kidneys of fathead minnows to one or more polynucleotides complementary to an Initiation Site of Origin of Replication. The oxidation of the non-fluorescent dihydrorhodamine 123 (DHR123) to fluorescent rhodamine (Rh 123) may be determined indirectly by determining fluorescence intensity using spectrofluorometry in a flow cytometer. Rh 123 has an absorption maximum at 507 nm and a fluorescence maximum at 529 nm. Results of fluorescence intensity for the polynucleotide of the present invention and a control may be obtained and compared. The control serves as a reference point for measuring changes in phenotype such as fluorescence intensity. A control may include a neutrophil contacted with a known neutrophil stimulator, such as phorbol myristic acetate (PMA), and/or a neutrophil not exposed to the neutrophil stimulator or the polynucleotide of the present invention. The degree or amount of fluorescent intensity of each sample may be determined at a desired time point and the values of various samples compared. For example, a similar or an increase in the fluorescence intensity level of a sample from a neutrophil exposed to a polynucleotide of the present invention relative to the fluorescence intensity level of a sample from a neutrophil exposed to a known neutrophil stimulator would be indicative of the polynucleotide being able to stimulate neutrophils. For example, an increase in the fluorescence intensity level of a sample from a neutrophil exposed to a polynucleotide of the present invention relative to the fluorescence intensity level of a sample from a control neutrophil not exposed a known neutrophil stimulator or polynucleotide of the present invention would be indicative of the polynucleotide being able to stimulate neutrophils. Other suitable assays may be used to determine neutrophil stimulation, by measuring the uptake of oxygen or destruction of bacteria, including but not limited to. Measuring the release of specific cytokines can also be used to determine neutrophil activity. See: Scapini, P., Llapinet-Vera, J., Gasperini, S., Calzetti, F., Bazzoni, F., Cassatella, M., The Neutrophil as a Cellular Source of Cytokines; Immunol. Rev. 177, 195-203.
Killing microbes by the action of myeloperoxidase requires oxygen. Therefore, measuring the transient increase in oxygen uptake—the respiratory burst—by neutrophils reflects their antimicrobial activity. The respiratory burst, therefore, can be used as an indicator of the extent of neutrophil stimulation.
Oligo A can dimerize with itself which may explain why it had less broad stimulating activity than die Oligo B. It was determined by spectrofluorometry in a flow cytometer which recorded the oxidation of the non-fluorescent dihydrorhodamine 123 (DHR123) to fluorescent rhodamine during exposure of neutrophils to the oligos. Results were compared to the degree of fluorescence of a known powerful neutrophil stimulator, phorbol myristic acetate (PMA).
The degree of stimulation by PMA at a concentration of […] represented in the accompanying graph as 100%.
Neutrophils from fathead minnows were prepared and tested by the Institute for International Cooperation in Animal Biologics, Iowa State Univ., Ames, Iowa 50011 (See: Immunomodulatory Effects of B-glucan on Neutrophil Function in Fathead Minnows, Pimephales promelas Rafinesque, 1820, Dev. and Comp. Immunol. (2006 30; 817-830), Palić, D., et al). Oligos were prepared by Oligos, Etc., Portland, Oreg. 97298).

For the compound “5′AAUAggUgU3′ (AAUANGUGU; ribonucleotide, lower-case positions undefined, further chemistry not given here) [Oligo A, ribonucleotide complementary to the consensus core of bacterial Initiation Sites]”, the “stimulation of neutrophils (qualitative)” value is given as “significant stimulation”. Further, the “% of PMA (oxidative burst)” value (Oligo Conc. 0.03 μg/ml) is recorded as 11.83 % of PMA. Moreover, the “% of PMA (oxidative burst)” value (Oligo Conc. 0.3 μg/ml) is listed as 0 % of PMA. Further, the “% of PMA (oxidative burst)” value (Oligo Conc. 3 μg/ml) is 0 % of PMA. Also, for the setting “Oligo Conc. 30 μg/ml”, the “% of PMA (oxidative burst)” value is 16.21 % of PMA.

For the compound “5′UUAUCCACA3′ (UUAUNCACA; chemistry not fully specified) [Oligo B]”, the “stimulation of neutrophils (qualitative)” value is reported as “significant stimulation”. Besides, the neutrophil destruction result (30 μg/ml) was “did not indicate neutrophil destruction”. The “% of PMA (oxidative burst)” value (Oligo Conc. 0.03 μg/ml) is 30 % of PMA and 29.57* % of PMA. Also, the “% of PMA (oxidative burst)” value (Oligo Conc. 0.3 μg/ml) is 18.32* % of PMA. The “% of PMA (oxidative burst)” value (Oligo Conc. 3 μg/ml) is 33.02* % of PMA. In addition, the “% of PMA (oxidative burst)” value (Oligo Conc. 30 μg/ml) is listed as 14.93 % of PMA. Under “P<0.05 denoted by *”, the “oxidative burst compared with other oligos” value is “significantly higher than Oligo A at all tested concentrations; also recorded: significantly higher than mixtures of Oligos A and B at most concentrations”.

On to `CCCCCCCCCCCCCC(=O)O[C@@H]1[C@@H](C)[C@@]2(O)[C@@H](C=C(CO)C[C@]3(O)C(=O)C(C)=C[C@@H]23)[C@@H]2C(C)(C)[C@]12OC(C)=O` [PMA, phorbol myristic acetate, reference compound], for which, under “PMA at 1 μg/, set as 100%”, the “degree of stimulation (reference)” value is 100%.
